The test system of assay [1] is ovariectomized Sprague-Dawley rats. Put plainly: Bone mineral density in the ovariectomized rat (pQCT, proximal tibia). The class given is in vivo. The note with it: 17β-estradiol 2 μg/rat s.c.; 5 weeks.
A further assay addresses T1, human ERβ (Homo sapiens, UniProt Q92731).
T1 construct: Flag (C); made in house; host or cells: E. coli BL21 (DE3), clarified lysate
The experiment in a line: ER radioligand binding competition, ERβ.

For another assay, the target named is T2, human ERα (Homo sapiens, UniProt P03372).
T2 construct: These templates contained amino acids M250-V595 of human ERα; His (N); Flag (C); made in house; host or cells: E. coli BL21 (DE3), clarified lysate
T2 sequence (P03372 250-595): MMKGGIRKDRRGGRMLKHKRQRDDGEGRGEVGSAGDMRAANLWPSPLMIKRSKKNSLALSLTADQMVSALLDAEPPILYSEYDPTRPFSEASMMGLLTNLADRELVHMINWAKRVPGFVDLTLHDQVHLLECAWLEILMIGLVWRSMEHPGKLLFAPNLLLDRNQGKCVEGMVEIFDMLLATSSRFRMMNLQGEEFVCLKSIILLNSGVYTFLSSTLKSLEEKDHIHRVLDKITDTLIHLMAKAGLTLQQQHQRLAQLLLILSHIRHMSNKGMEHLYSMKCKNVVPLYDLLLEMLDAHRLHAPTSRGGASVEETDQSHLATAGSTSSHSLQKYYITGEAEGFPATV
The experiment in a line: ER radioligand binding competition, ERα.

The subject of a further assay is Lewis rats. Put plainly: Lewis rat adjuvant-induced arthritis, treatment protocol: joint score (maximal score per day 12). The note with it: s.c. daily, begun Day 8 after adjuvant. The class given is in vivo.
For assay [2], the system named is Sexually immature 129 SvE mice. The experiment in a line: Mouse uterotrophic test procedure (Procedure 2). It counts as in vivo. As to conditions: compound 50 mg/kg s.c., days 22-25.
Setting [3] is: competition with [3H]-17β-estradiol, read-out: ER-α IC50.

Like-named read-outs stand apart in the source and are kept apart here. Some results are limits rather than exact numbers.

T1 sequence (Q92731 214-530): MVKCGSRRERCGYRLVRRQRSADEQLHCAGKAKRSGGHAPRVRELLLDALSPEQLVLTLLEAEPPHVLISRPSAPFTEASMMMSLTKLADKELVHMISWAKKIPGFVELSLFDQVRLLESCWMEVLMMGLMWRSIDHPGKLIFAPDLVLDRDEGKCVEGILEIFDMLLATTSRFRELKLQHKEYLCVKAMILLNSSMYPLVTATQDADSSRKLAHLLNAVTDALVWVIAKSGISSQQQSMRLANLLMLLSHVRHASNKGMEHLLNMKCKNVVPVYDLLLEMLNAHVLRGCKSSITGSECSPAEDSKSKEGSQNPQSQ

With `C[C@]12CC[C@@H]3c4ccc(O)cc4CC[C@H]3[C@@H]1CC[C@@H]2O` [17β-estradiol, reference compound], in assay [1], the “Total Bone Mineral Density (mean ± SEM)” value amounted to 639.49 ± 14.47 mg/mL and the “Trabecular Bone Mineral Density (mean ± SEM)” value came out at 453.28 ± 24.93 mg/mL.
In the case of `Oc1ccc(O)c(-c2nc3cc(O)ccc3o2)c1` [Example 1, 2-(5-HYDROXY-1,3-BENZOXAZOL-2-YL) BENZENE-1,4-DIOL], the figures for the IC50 on human ERβ and on human ERα (setting [3]) were 140 nM and 720 nM, respectively.
As to `Oc1ccc2nc(-c3ccc(O)c(F)c3)oc2c1` [Example 6, 2-(3-FLUORO-4-HYDROXYPHENYL)-1,3-BENZOXAZOL-6-OL], the IC50 – broadly, the concentration at which inhibition is half-maximal – on human ERα amounted to 843 nM.
As for `Oc1ccc(O)c(-c2nc3ccc(O)cc3o2)c1` [Example 8, 2-(6-HYDROXY-1,3-BENZOXAZOL-2-YL)BENZENE-1,4-DIOL], the IC50 is 181 nM on human ERβ and 2350 nM on human ERα (setting [3]).
Regarding `Oc1ccc2nc(-c3cccc(O)c3O)oc2c1` [Example 9, 3-(6-HYDROXY-1,3-BENZOXAZOL-2-YL)BENZENE-1,2-DIOL], on human ERα, the half-maximal inhibitory concentration (IC50) was determined as 1500 nM.
For `Oc1cc(Br)c2oc(-c3ccc(O)c(F)c3F)nc2c1` [Example 23, 7-BROMO-2-(2,3-DIFLUORO-4-HYDROXYPHENYL)-1,3-BENZOXAZOL-5-OL], the IC50 was 3 nM at human ERβ and 113 nM at human ERα (setting [3]).
At human ERα, `C=Cc1cc(O)cc2nc(-c3ccc(O)cc3)oc12` [Example 27, 2-(4-HYDROXYPHENYL)-7-VINYL-1,3-BENZOXAZOL-5-OL] gave an IC50 of 409 nM. In addition, the Joint inflammation score with Lewis rats (table Day 1) came out at 11.33; with Lewis rats (table Day 2), 11.15; with Lewis rats (table Day 3), 11.33; with Lewis rats (table Day 4) it was 9.83; in the assay on Lewis rats (table Day 5), 8.83; in the assay on Lewis rats (table Day 6), 7.83. Moreover, the Joint inflammation score was 6.16 with Lewis rats (table Day 7); 5.00 with Lewis rats (table Day 8); 4.33 in the assay on Lewis rats (table Day 9); 2.66 in the assay on Lewis rats (table Day 10); 1.83 with Lewis rats (table Day 11); 1.83 in the assay on Lewis rats (table Day 12). Besides, the Joint inflammation score was 2.66 in the assay with Lewis rats (table Day 13); 2.66 with Lewis rats (table Day 14); 2.00 in the assay with Lewis rats (table Day 15); 2.00 with Lewis rats (table Day 16); 1.50 in the assay on Lewis rats (table Day 17).
Consider `Oc1ccc(-c2nc3cc(O)cc(C(Br)CBr)c3o2)cc1` (stereo not drawn) [Example 30, 7-(1,2-DIBROMOETHYL)-2-(4-HYDROXYPHENYL)-1,3-BENZOXAZOL-5-OL], for which the values for the IC50 at human ERβ and on human ERα (setting [3]) were 134 nM and 3080 nM, respectively.
The matching figures for `C=C(Br)c1cc(O)cc2nc(-c3ccc(O)cc3)oc12` [Example 31, 7-(1-BROMOVINYL)-2-(4-HYDROXYPHENYL)-1,3-BENZOXAZOL-5-OL]: 31 nM and 352 nM.
`C=C(Br)c1cc(O)cc2nc(-c3ccc(O)cc3F)oc12` [Example 32, 7-(1-BROMOVINYL)-2-(2-FLUORO-4-HYDROXYPHENYL)-1,3-BENZOXAZOL-5-OL]: the IC50 was 16 nM at human ERβ and 196 nM at human ERα (setting [3]). For the same compound, the Joint inflammation score in the assay on Lewis rats (table Day 1) is 11.33; in the assay with Lewis rats (table Day 2), 10.83; in the assay on Lewis rats (table Day 3), 9.33; in the assay with Lewis rats (table Day 4) it was 8.00; in the assay with Lewis rats (table Day 5), 5.83; in the assay on Lewis rats (table Day 6), 3.33. In addition, the Joint inflammation score with Lewis rats (table Day 7) turned out to be 3.00; in the assay on Lewis rats (table Day 8), 2.50; in the assay on Lewis rats (table Day 9), 2.50; in the assay on Lewis rats (table Day 10) it was 2.50; with Lewis rats (table Day 11), 2.50; in the assay on Lewis rats (table Day 12), 2.50. In addition, the Joint inflammation score in the assay on Lewis rats (table Day 13) is recorded as 2.50; with Lewis rats (table Day 14), 2.50; in the assay with Lewis rats (table Day 15), 2.00; in the assay with Lewis rats (table Day 16), 1.33; in the assay on Lewis rats (table Day 17) it was 1.00.
`C=C(Br)c1cc(O)cc2nc(-c3ccc(O)c(F)c3F)oc12` [Example 33, 7-(1-BROMOVINYL)-2-(2,3-DIFLUORO-4-HYDROXYPHENYL)-1,3-BENZOXAZOL-5-OL]: the IC50 on human ERβ amounted to 31 nM; at human ERα (setting [3]), 352 nM.
As for `NC(=O)c1cc(O)cc2nc(-c3ccc(O)cc3)oc12` [Example 42, 5-HYDROXY-2-(4-HYDROXYPHENYL)-1,3-BENZOXAZOL-7-CARBOXAMIDE], the “mean uterine weight ± SEM” value in assay [2] was determined as 9.5 ± 0.6 mg.
As for `CCc1cc(O)ccc1-c1nc2cc(O)cc(CC)c2o1` [Example 45, 7-ETHYL-2-(2-ETHYL-4-HYDROXYPHENYL)-1,3-BENZOXAZOL-5-OL], the IC50 is 84 nM at human ERβ and 655 nM at human ERα (setting [3]).
The corresponding values for `CC(C)(O)c1cc(O)cc2nc(-c3ccc(O)cc3)oc12` [Example 50] are 399 nM and above 5000 nM.
The matching figures for `C=C(C)c1cc(O)cc2nc(-c3ccc(O)cc3)oc12` [Example 51, 2-(4-HYDROXYPHENYL)-7-ISOPROPENYL-1,3-BENZOXAZOL-5-OL]: 142 nM and 775 nM.
The matching figures for `COc1cc(O)c(Br)c2nc(-c3ccc(O)cc3)oc12` [Example 59, 4-BROMO-2-(4-HYDROXYPHENYL)-7-METHOXY-1,3-BENZOXAZOL-5-OL]: 52 nM and 2670 nM.
As to `COc1c(Br)c(O)c(Br)c2nc(-c3ccc(O)cc3)oc12` [Example 60, 4,6-DIBROMO-2-(4-HYDROXYPHENYL)-7-METHOXY-1,3-BENZOXAZOL-5-OL], the IC50 on human ERβ amounted to 64 nM; on human ERα (setting [3]) it was 559 nM.
For `Oc1cc(Br)c2oc(-c3cc(F)c(O)c(F)c3)nc2c1` [Example 61, 7-BROMO-2-(3,5-DIFLUORO-4-HYDROXYPHENYL)-1,3-BENZOXAZOL-5-OL], the IC50 on human ERβ came to 93 nM; on human ERα (setting [3]), 1180 nM.

For the origin of these results see patent US20060046968A1, “Prodrug substituted benzoxazoles as estrogenic agents” (priority 2004, published 2006).
